What was measured:
HCT116 cells = experiment: Whole cell cytotoxicity assay, Sulforhodamine B; format: cell-based; settings: Homo sapiens, HCT-116, HCT116, 96 hours incubation, SRB; for IC50: read-out: IC50 values in this assay (HCT116 cell growth); for GI50: read-out: GI50 HCT116 cell growth
Summary of the method: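 HCT116 cells (500/well) in DMEM/10% FBS/2 mM glutamine were preincubated 24 h, then exposed to compound for 96 h at 37 °C, 5% CO2, in duplicate. Cells were fixed with TCA and stained with sulforhodamine B (A570). GI50, TGI and LC50 were derived relative to a time-zero plate and an untreated control.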

recombinant Aurora A = molecular target: T1, recombinant Aurora A (Homo sapiens, UniProt O14965); experiment: Aurora A (Aurora 2) inhibition assay, Z'-Lyte kinase assay; format: biochemical; settings: group with IC50 greater than 100 nM; ATP 10 μM, 1 h
T1 construct: purchased Upstate, Lake Placid, N.Y
T1 sequence (O14965 1-403): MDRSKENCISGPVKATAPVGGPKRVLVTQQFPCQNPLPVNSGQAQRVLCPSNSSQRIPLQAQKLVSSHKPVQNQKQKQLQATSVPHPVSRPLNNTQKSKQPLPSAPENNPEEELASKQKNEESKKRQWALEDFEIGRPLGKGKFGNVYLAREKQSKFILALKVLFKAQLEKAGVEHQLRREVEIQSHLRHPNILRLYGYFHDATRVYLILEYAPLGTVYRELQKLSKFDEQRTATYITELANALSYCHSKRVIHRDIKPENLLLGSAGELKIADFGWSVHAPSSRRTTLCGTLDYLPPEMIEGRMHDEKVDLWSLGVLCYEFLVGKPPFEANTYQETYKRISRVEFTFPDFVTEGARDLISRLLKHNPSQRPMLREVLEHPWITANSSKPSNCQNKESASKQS
Summary of the method: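 Z'-Lyte FRET assay: Aurora A (200-500 ng/mL final), Ser/Thr 1 peptide (2 μM) and ATP (10 μM) in 50 mM HEPES pH 7.5, 10 mM MgCl2, 5 mM EGTA, 0.05% Brij-35, 2 mM DTT, 1 h at room temperature. Coumarin/fluorescein emission ratio converted to percent phosphorylation; dose-response curves plotted.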

Compound | IC50 (recombinant Aurora A) [nM] | IC50 (HCT116 cells) [nM] | GI50 (HCT116 cells) [nM]
Cc1cc(Nc2cc(N3CCN(C)CC3)nc(-c3cccc4c3OCCO4)n2)n[nH]1 [Example 136, 2-(2,3-dihydrobenzo[b][1,4]dioxin-5-yl)-N-(5-methyl-1H-pyrazol-3-yl)-6-(4-methylpiperazin-1-yl)pyrimidin-4-amine] | ≤ 1000 | 1000 to 10000 | 
Cc1cc(Nc2cc(N3CCN(C)CC3)nc(-c3ccc(C(F)(F)F)cc3)n2)n[nH]1 [Compound 100] | ≤ 1000 | 1000 to 10000 | 
Cc1cc(Nc2cc(N(C)CCN(C)C)nc(-c3ccc(C(C)(C)C)cc3)n2)n[nH]1 [Compound 103, 2-(4-tert-butylphenyl)-N^4-(2-(dimethylamino)ethyl)-N^4-methyl-N^6-(5-methyl-1H-pyrazol-3-yl)pyrimidine-4,6-diamine] | ≤ 1000 |  | ≤ 1000
Cc1cc(Nc2cc(N3CCN(C)CC3)nc(-c3cc(F)cc(Cl)c3)n2)n[nH]1 [Compound 97] | ≤ 1000 |  | ≤ 1000
Cc1cc(Nc2cc(N(C)CCN(C)C)nc(-c3ccc4ccccc4c3)n2)n[nH]1 [Example 142, N^4-(2-(dimethylamino)ethyl)-N^4-methyl-N^6-(5-methyl-1H-pyrazol-3-yl)-2-(naphthalen-2-yl)pyrimidine-4,6-diamine] | ≤ 1000 |  | ≤ 1000
Cc1cc(Nc2cc(NC3CCOCC3)nc(-c3ccc(C(C)(C)C)cc3)n2)n[nH]1 [Compound 70, 2-(4-tert-butylphenyl)-N^4-(5-methyl-1H-pyrazol-3-yl)-N^6-(tetrahydro-2H-pyran-4-yl)pyrimidine-4,6-diamine] | ≤ 1000 | 1000 to 10000 | 
Cc1cc(Nc2cc(N(C)CCN(C)C)nc(-c3cccc(N(C)C)c3)n2)n[nH]1 [Compound 107] | ≤ 1000 | 1000 to 10000 | 
COCCN(C)c1cc(Nc2cc(C)[nH]n2)nc(-c2ccc3ccccc3c2)n1 [Example 149, N^4-(2-methoxyethyl)-N^4-methyl-N^6-(5-methyl-1H-pyrazol-3-yl)-2-(naphthalen-2-yl)pyrimidine-4,6-diamine] | ≤ 1000 | 1000 to 10000 | 
COCCN(C)c1cc(Nc2cc(C)[nH]n2)nc(-c2ccccc2Cl)n1 [Compound 63] | ≤ 1000 | 1000 to 10000 | 
COCCN(C)c1cc(Nc2cc(C)[nH]n2)nc(-c2cccc(OC)c2)n1 [Compound 68, N^4-(2-methoxyethyl)-2-(3-methoxyphenyl)-N^4-methyl-N^6-(5-methyl-1H-pyrazol-3-yl)pyrimidine-4,6-diamine] | ≤ 1000 |  | ≤ 1000
Cc1cc(Nc2cc(N(C)CCN(C)C)nc(-c3cccc(C(F)(F)F)c3)n2)n[nH]1 [Compound 113, N^4-(2-(dimethylamino)ethyl)-N^4-methyl-N^6-(5-methyl-1H-pyrazol-3-yl)-2-(3-(trifluoromethyl)phenyl)pyrimidine-4,6-diamine] | ≤ 1000 |  | ≤ 1000
COCCN(C)c1cc(Nc2cc(C)[nH]n2)nc(-c2cccc(C)c2)n1 [Compound 65, N^4-(2-methoxyethyl)-N^4-methyl-N^6-(5-methyl-1H-pyrazol-3-yl)-2-m-tolylpyrimidine-4,6-diamine] | ≤ 1000 | 1000 to 10000 | 

The next lines start with results.

IC50 (recombinant Aurora A) [nM] | Compound | IC50 (HCT116 cells) [nM] | GI50 (HCT116 cells) [nM]
≤ 1000 | Cc1cc(Nc2cc(NC3CCOCC3)nc(-c3ccccc3C(F)(F)F)n2)n[nH]1 [Compound 81, N^4-(5-methyl-1H-pyrazol-3-yl)-N^6-(tetrahydro-2H-pyran-4-yl)-2-(2-(trifluoromethyl)phenyl)pyrimidine-4,6-diamine] | 1000 to 10000 | 
≤ 1000 | Cc1cc(Nc2cc(N(C)CCN(C)C)nc(-c3ccc4c(c3)OCO4)n2)n[nH]1 [Example 146, 2-(benzo[d][1,3]dioxol-5-yl)-N^4-(2-(dimethylamino)ethyl)-N^4-methyl-N^6-(5-methyl-1H-pyrazol-3-yl)pyrimidine-4,6-diamine] |  | ≤ 1000
≤ 1000 | Cc1cc(Nc2cc(N3CCN(C)CC3)nc(-c3ccc(-c4ccccc4)cc3)n2)n[nH]1 [Example 157, 2-(biphenyl-4-yl)-N-(5-methyl-1H-pyrazol-3-yl)-6-(4-methylpiperazin-1-yl)pyrimidin-4-amine] |  | ≤ 1000
≤ 1000 | COCCN(C)c1cc(Nc2cc(C)[nH]n2)nc(-c2cccc3c2OCCO3)n1 [Example 150, 2-(2,3-dihydrobenzo[b][1,4]dioxin-5-yl)-N^4-(2-methoxyethyl)-N^4-methyl-N^6-(5-methyl-1H-pyrazol-3-yl)pyrimidine-4,6-diamine] | 1000 to 10000 | 
≤ 1000 | Cc1cc(Nc2cc(N3CCN(C)CC3)nc(-c3ccccc3C(F)(F)F)n2)n[nH]1 [Compound 102, N-(5-methyl-1H-pyrazol-3-yl)-6-(4-methylpiperazin-1-yl)-2-(2-(trifluoromethyl)phenyl)pyrimidin-4-amine] | 1000 to 10000 | 
≤ 1000 | COCCN(C)c1cc(Nc2cc(C)[nH]n2)nc(-c2ccc(N(C)C)cc2)n1 [Compound 118, 2-(4-(dimethylamino)phenyl)-N^4-(2-methoxyethyl)-N^4-methyl-N^6-(5-methyl-1H-pyrazol-3-yl)pyrimidine-4,6-diamine] | 1000 to 10000 | 
≤ 1000 | COCCN(C)c1cc(Nc2cc(C)[nH]n2)nc(-c2cccc3ccccc23)n1 [Example 148, N^4-(2-methoxyethyl)-N^4-methyl-N^6-(5-methyl-1H-pyrazol-3-yl)-2-(naphthalen-1-yl)pyrimidine-4,6-diamine] | 1000 to 10000 | 
≤ 1000 | Cc1cc(Nc2cc(NC3CCOCC3)nc(-c3cccc(C(F)(F)F)c3)n2)n[nH]1 [Compound 80, N^4-(5-methyl-1H-pyrazol-3-yl)-N^6-(tetrahydro-2H-pyran-4-yl)-2-(3-(trifluoromethyl)phenyl)pyrimidine-4,6-diamine] | 1000 to 10000 | 
≤ 1000 | COCCN(C)c1cc(Nc2cc(C)[nH]n2)nc(-c2ccc(OC)cc2)n1 [Compound 67, N^4-(2-methoxyethyl)-2-(4-methoxyphenyl)-N^4-methyl-N^6-(5-methyl-1H-pyrazol-3-yl)pyrimidine-4,6-diamine] | 1000 to 10000 | 
≤ 1000 | Cc1cc(Nc2cc(NC3CCOCC3)nc(-c3ccc(C(F)(F)F)cc3)n2)n[nH]1 [Compound 79, N^4-(5-methyl-1H-pyrazol-3-yl)-N^6-(tetrahydro-2H-pyran-4-yl)-2-(4-(trifluoromethyl)phenyl)pyrimidine-4,6-diamine] | 1000 to 10000 | 
≤ 1000 | Cc1cc(Nc2cc(NC3CCOCC3)nc(-c3cccc4ccccc34)n2)n[nH]1 [Example 127, N^4-(5-methyl-1H-pyrazol-3-yl)-2-(naphthalen-1-yl)-N^6-(tetrahydro-2H-pyran-4-yl)pyrimidine-4,6-diamine] | 1000 to 10000 | 
≤ 1000 | COCCN(C)c1cc(Nc2cc(C)[nH]n2)nc(-c2cccc(C(F)(F)F)c2)n1 [Compound 125, N^4-(2-methoxyethyl)-N^4-methyl-N^6-(5-methyl-1H-pyrazol-3-yl)-2-(3-(trifluoromethyl)phenyl)pyrimidine-4,6-diamine] | 1000 to 10000 | 
≤ 1000 | COCCN(C)c1cc(Nc2cc(C)[nH]n2)nc(-c2ccccc2C(F)(F)F)n1 [Example 126, N^4-(2-methoxyethyl)-N^4-methyl-N^6-(5-methyl-1H-pyrazol-3-yl)-2-(2-(trifluoromethyl)phenyl)pyrimidine-4,6-diamine] | 1000 to 10000 | 

— patent US20090029992A1, “SUBSTITUTED PYRAZOLE COMPOUNDS” (priority 2007, published 2009)
